Columns and labels:
[1] = carboxyl group replaced with methyl group; cited from earlier work
Zebrafish embryos = experiment: Zebrafish embryo staining: localization and tissue permeability; type: in vivo; settings: confocal projections of head and tail, 80 μm of embryonic interior
Description: Zebrafish embryos were stained with compound 3 and compound 4 in order to assess the localization and tissue permeability of each compound in vivo. This procedure had not previously been attempted in zebrafish embryos with an unconjugated fluorescein derivative. Therefore, the commercially available BODIPY TR methyl ester was used as a control stain since it has been successfully used for this purpose.[10] […] Yolk sacs and yolk extensions always appeared brighter than the embryos themselves (FIG. 3A-C). This is likely the result of compound accumulation within the lipidic yolk platelets that comprise almost the entire volume of the yolk.[11]
Structures containing little organic material, including scales and calcified otoliths, were not stained. Confocal sections of the dorsal midline (FIG. 3H, J, L) indicate that the notochord sheath and surrounding tissue are efficiently labeled, while the notochord vacuoles remain unstained.

live human cells = settings: compared with Tokyo Green; cited from earlier work

## Cc1ccccc1-c1c2ccc(=O)cc-2oc2cc(O)ccc12 [Tokyo Green]
[1]
  quantum yield relative to fluorescein: no loss of quantum yield

## COC(=O)COc1ccc(C2=[N+]3C(=Cc4ccc(-c5cccs5)n4[B-]3(F)F)C=C2)cc1 [BODIPY TR methyl ester]
Zebrafish embryos
  permeation of live tissue: permeate live tissue to similar extents

## Cc1ccccc1-c1c2cc(F)c(=O)cc-2oc2cc(O)c(F)cc12 [Pennsylvania Green]
Live human cells
  fluorescence in live human cells: more fluorescent than Tokyo Green
